The RepoRT retention time repository

Assay: Agilent ZORBAX 300 SB-C18, 150 × 1 mm, 3.5 µm; A: water + 0.01% heptafluorobutyric acid; B: acetonitrile + 0.01% heptafluorobutyric acid; gradient (min/%B) 0/0 100/90
Conditions: stereoisomer not certain

`CCN(Cc1ccncc1)C(=S)NCCc1ccccc1` and `Nc1ccc(Cc2ccncc2)cc1` are within 1.5-fold of each other in LC retention time: 10.2 min for the first, 8.71 min for the second.

`CNC(C)c1ccccc1` (stereo unspecified) and `NCc1ccccc1` are within 1.5-fold of each other in LC retention time: 7.92 min for the first, 7.6 min for the second.

`Cc1cc(N)c2ccccc2[n+]1CCCCCCCCCC[n+]1c(C)cc(N)c2ccccc21` and `Cc1nnc(Oc2ccccc2)c2ccccc12` are within 1.5-fold of each other in LC retention time: 10.7 min for the first, 10.8 min for the second.

`CCCCCCN1CNC(=S)NC1` and `CCCCCCCCCN` are within 1.5-fold of each other in LC retention time: 9.89 min for the first, 11 min for the second.

`O=C(O)Cn1cnc2ccccc2c1=O` and `CCNc1ccccc1C(=O)O` are within 1.5-fold of each other in LC retention time: 7.3 min for the first, 10.8 min for the second.

`c1ccc(CCn2cccc2)cc1` and `c1ccc(Cn2ccc3ccccc32)cc1` are within 1.5-fold of each other in LC retention time: 15.5 min for the first, 16.8 min for the second.

`O=C(O)CC(CNC(=O)CCCCCN1C(=O)c2ccccc2C1=O)c1ccccc1` (stereo unspecified) and `Cn1c(C(c2ccccc2)c2ccccc2)n[nH]c1=S` are within 1.5-fold of each other in LC retention time: 11.6 min for the first, 12.9 min for the second.

`COc1ccc2c(=O)c(C)c(-c3ccccc3)oc2c1CN(C)C` and `Cc1cc(C)c2c(O)c(Cc3ccccc3)c(=O)[nH]c2c1` are within 1.5-fold of each other in LC retention time: 10.1 min for the first, 12.6 min for the second.

`Cc1ccc(NC(=S)NN=C2CCN(C(C)C)CC2)cc1` and `Cc1ccc(NC(=S)NC2CC(C)(C)NC(C)(C)C2)cc1` are within 1.5-fold of each other in LC retention time: 9.64 min for the first, 9.5 min for the second.

`CCOC(=O)C1=CN(c2cc(C)ccc2C)C=C(C(=O)OCC)C1c1cccc(C)c1` and `Cc1cccc(-c2nnc(-c3ccccc3C)o2)c1` are within 1.5-fold of each other in LC retention time: 21.5 min for the first, 17.1 min for the second.

`NCc1cccc(CN)c1` and `CNCC(O)c1cccc(O)c1` (stereo unspecified) are within 1.5-fold of each other in LC retention time: 7.04 min for the first, 7.2 min for the second.

`CCC(C)n1cc(C=C2NC(=O)NC2=O)c2ccccc21` (stereo unspecified) and `Cc1ccc(N2C(=O)NC(=O)C(=Cc3cc(C)n(-c4ccccc4)c3C)C2=O)cc1` are within 1.5-fold of each other in LC retention time: 12.7 min for the first, 15 min for the second.

`Cc1cc(-c2noc(-c3ccco3)n2)c2ccccc2n1` and `O=C(C=Cc1ccco1)c1ccccc1` are within 1.5-fold of each other in LC retention time: 13.1 min for the first, 14.5 min for the second.

`CC(N)CN(C)C` (stereo unspecified) and `CC(C)CC(C)N` (stereo unspecified) are within 1.5-fold of each other in LC retention time: 6.58 min for the first, 7.77 min for the second.

`Nc1cccc2c1C(=O)c1cccc(N)c1C2=O` and `Cc1cc2c(s1)Nc1ccccc1N=C2N` are within 1.5-fold of each other in LC retention time: 12.6 min for the first, 9.24 min for the second.

`CC(C)(C)c1ccc(-c2nnnn2-c2ccccc2)cc1` and `O=C(Nc1ccc(C(=O)c2ccccc2)cc1)c1ccc(-c2ccccc2)cc1` are within 1.5-fold of each other in LC retention time: 16.8 min for the first, 17.8 min for the second.

`CC(=O)c1cc2ccccc2oc1=O` and `O=C(O)c1ccccc1CN1CCCC1` are within 1.5-fold of each other in LC retention time: 10.8 min for the first, 7.5 min for the second.

`COC1=CC(=O)C(=O)C=C1OC` and `Cc1ccc2[nH]cc(C=O)c2c1` are within 1.5-fold of each other in LC retention time: 7.13 min for the first, 9.98 min for the second.

`c1cnc2nc[nH]c2c1` and `Cc1ncnc2nc[nH]c12` are within 1.5-fold of each other in LC retention time: 6.03 min for the first, 5.87 min for the second.

`CCN(CC)C(=O)N1CCN(C)CC1` and `CCC(=O)Nc1ccc(N2CCN(C(=O)C(C)C)CC2)cc1` are within 1.5-fold of each other in LC retention time: 7.39 min for the first, 9.46 min for the second.

`CC(=O)CNC(C)(C)C` and `C#CC(C)(C)NC(C)=O` are within 1.5-fold of each other in LC retention time: 6.35 min for the first, 6.79 min for the second.

`CCNC(=O)CC(=O)NCC` and `CCCCNCC(=O)Nc1ccc(NC(=O)CNCCCC)cc1` are within 1.5-fold of each other in LC retention time: 5.95 min for the first, 8.26 min for the second.

`C[N+]1(CCOCc2ccccc2)CC[N+](C)(CCOCc2ccccc2)CC1` (stereo unspecified) and `c1ccc(CN2CCN(Cc3ccccc3)C2c2cccs2)cc1` are within 1.5-fold of each other in LC retention time: 9.32 min for the first, 11 min for the second.

Going from `CN1CCNCC1` to `CN1CCOCC1`, the LC retention time falls from 6.48 min to 3.96 min (1.6-fold).

First: C#CCN(CCCC)CCCC
Second: CCCCC(CC)CNCC(CC)CCCC (stereo unspecified)
The LC retention time of the first is 1.6-fold lower: 9.04 min for the first, 14.2 min for the second.

`O=C1CCCCCN1CP(=O)(O)CCc1ccccc1` and `O=c1[nH]c(-c2ccccc2)cn1C1CCNCC1` are within 1.5-fold of each other in LC retention time: 9 min for the first, 8.03 min for the second.

`CC1CCCN1` (stereo unspecified) and `Cc1cc(=O)[nH]c(N=C(N)N2CCOCC2)n1` are within 1.5-fold of each other in LC retention time: 5.96 min for the first, 6.89 min for the second.

`CCN1C(=O)CC(N2CCC(n3c(=O)[nH]c4ccccc43)CC2)C1=O` (stereo unspecified) and `CC(C)c1ccc(OCC(=O)N2CCC(C(N)=O)CC2)cc1` are within 1.5-fold of each other in LC retention time: 8.81 min for the first, 10.8 min for the second.

Going from `O=C(Cn1ccc(=O)[nH]c1=O)NCCO` to `CCCCOC(=O)CCc1n[nH]c(=O)[nH]c1=O`, the LC retention time rises from 2.12 min to 9.57 min (4.5-fold).

`CCN(C(C)C)C(C)C` and `CCCCNCC` are within 1.5-fold of each other in LC retention time: 7.51 min for the first, 7.1 min for the second.

Going from `COc1ccc(C2CC(=O)Nc3cc4c(cc32)OCO4)cc1` (stereo unspecified) to `NC(=O)Cc1ccc(O)cc1`, the LC retention time falls from 11.9 min to 5.97 min (2-fold).

`CCN(CC)CCNC(=O)c1ccc(N)cc1` and `c1cncc(-c2nn[nH]n2)c1` are within 1.5-fold of each other in LC retention time: 7.73 min for the first, 5.35 min for the second.

Compared with `O=P(O)(O)CN(CP(=O)(O)O)CP(=O)(O)O`, `CC(=O)N1C(=O)N(C(C)=O)C(O)C1O` (stereo unspecified) is 5.9-fold higher in LC retention time: 1.08 min for the first, 6.42 min for the second.
